From patent US8546377B2 (AbbVie Inc., priority 2009, dated 2013)
Read-outs that look alike come from different tables or passages of the source.

What was measured:
5HT2B receptors = molecular target: T1, 5HT2B receptors (Homo sapiens, UniProt P41595); test: Human 5-HT2B functional assay in CHO-K1 cells (calcium flux, FLIPR); format: cell-based
T1 construct: expressed in transfected cells; host or cells: CHO-K1 cells
Procedure: (§1) (iii) Human 5-HT2C and 5-HT2B Functional Assay in CHO-K1 Cells
(§2) CHO-K1 cells over-expressing 5HT2C or 5HT2B receptors were grown in 1272 cm^2 flasks to 70-80% confluency in UltraCHO media supplemented with 1% dialyzed fetal bovine serum (FBS), 250 μg/mL zeocin, 100 U/mL penicillin/streptomycin, and 400 μg/mL geneticin. The cells were dissociated from the flasks using 0.05% trypsin, resuspended in freezing media and stored in liquid nitrogen until use. Calcium flux experiments were done using frozen cells. The cells were diluted in media containing 1% dialyzed FBS and 100 U/mL penicillin/streptomycin and plated into 384-well poly-D-Lysine coated plates (15,000 cells/well). Then the plates were incubated overnight in a cell incubator at 37° C., 5% CO2. On the next day, the growth media was replaced with media without FBS and further incubated overnight. On day three, the changes in intracellular Ca^2+ were determined using calcium sensitive fluorescent dye, Ca4 (MDS Analytical Technologies, Sunnyvale, Calif.) by loading 15 μL of diluted dye with 2.5 mM probenecid into the cells containing media and incubated at room temperature for 60 minutes in dark.
(§3) Fluorescence measurements were read at 25° C. at an excitation wavelength of 480 nm and an emission wavelength of 530 nm in FLIPR (MDS). Baseline fluorescence was measured for the first 10 seconds and then 15 μL of 4× concentrations of serotonin/test compounds was added to the cell plate. The fluorescence intensity was captured every second for the first 1 minute followed by every 5 seconds for an additional 2 minutes. The increase in fluorescent response was determined and was normalized to the response of serotonin. The concentration response of compounds was done from a starting concentration of 10 μM, 1:10 dilution across 6 wells with a final dimethyl sulfoxide concentration of 0.2% and was fitted using a 4-parameter logistic equation. The concentration at which a compound exerts half its maximal effect was named as ‘effective concentration 50’ or ‘EC50’.
(§4) Emax is the maximum functional response or efficacy expressed as a percentage relative to the effect of serotonin.

5HT2C receptors = molecular target: T2, 5HT2C receptors (Homo sapiens, UniProt P28335); test: Human 5-HT2C functional assay in CHO-K1 cells (calcium flux, FLIPR); format: cell-based; parameters: expressed in transfected cells; host or cells: CHO-K1 cells; conditions: for Emax: percentage relative to the effect of serotonin
T2 sequence (P28335 33-458): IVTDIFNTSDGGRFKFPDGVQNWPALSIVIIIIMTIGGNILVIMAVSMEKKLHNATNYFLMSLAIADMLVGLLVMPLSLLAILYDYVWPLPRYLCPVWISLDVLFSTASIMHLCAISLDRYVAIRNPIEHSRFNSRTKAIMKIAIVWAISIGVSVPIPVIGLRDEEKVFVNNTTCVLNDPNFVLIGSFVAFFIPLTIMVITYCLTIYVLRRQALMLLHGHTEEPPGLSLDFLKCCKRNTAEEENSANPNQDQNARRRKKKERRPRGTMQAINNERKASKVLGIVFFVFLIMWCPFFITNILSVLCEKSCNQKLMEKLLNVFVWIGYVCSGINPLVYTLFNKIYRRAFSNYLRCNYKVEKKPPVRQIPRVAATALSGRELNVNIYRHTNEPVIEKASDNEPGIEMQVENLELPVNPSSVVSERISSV
Procedure: as §1, §2, §3, §4

[1] = CHO-K1 cells over-expressing 5HT2B, calcium flux, read-out: EC50 (μM), 5-HT2B Agonist Activity
[2] = CHO-K1 cells, percentage relative to the effect of serotonin, read-out: Emax (%), 5-HT2B Agonist Activity
[3] = CHO-K1 cells over-expressing 5HT2C, calcium flux, read-out: EC50 (μM), 5-HT2c Agonist Activity
[4] = CHO-K1 cells, read-out: Emax (%), 5-HT2c Agonist Activity
[5] = CHO-K1, read-out: Emax (%), 5-HT2c Agonist Activity, CHO-K1 cells
[6] = CHO-K1, read-out: Emax (%), 5-HT2B Agonist Activity

T1 sequence (P41595 whole entry): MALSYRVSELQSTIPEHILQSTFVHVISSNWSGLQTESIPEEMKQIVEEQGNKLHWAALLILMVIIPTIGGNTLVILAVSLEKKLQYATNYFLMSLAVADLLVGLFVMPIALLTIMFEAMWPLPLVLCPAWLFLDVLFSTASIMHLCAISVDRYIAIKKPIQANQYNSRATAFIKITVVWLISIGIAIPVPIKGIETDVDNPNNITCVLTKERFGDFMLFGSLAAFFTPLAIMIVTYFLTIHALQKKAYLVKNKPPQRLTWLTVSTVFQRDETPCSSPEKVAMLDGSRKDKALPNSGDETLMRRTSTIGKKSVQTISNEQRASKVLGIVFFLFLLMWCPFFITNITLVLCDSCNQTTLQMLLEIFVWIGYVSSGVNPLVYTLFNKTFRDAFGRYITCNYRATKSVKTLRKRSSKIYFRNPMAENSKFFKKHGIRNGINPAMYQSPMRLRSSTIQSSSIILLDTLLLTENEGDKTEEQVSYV

| Compound | EC50 (5HT2B receptors; [1]) | Emax (5HT2B receptors; [2]) | EC50 (5HT2C receptors; [3]) | Emax (5HT2C receptors; [4]) | EC50 (5HT2B receptors) | EC50 (5HT2C receptors) | Emax (5HT2C receptors; [5]) | Emax (5HT2B receptors; [6]) |
| --- | --- | --- | --- | --- | --- | --- | --- | --- |
| O=C1CC2CNCCN2c2cc(-c3ccsc3)ccc2N1 (stereo not shown) [Example 72, 10-(3-thienyl)-1,2,3,4,4a,5-hexahydropyrazino[1,2-a][1,5]benzodiazepin-6(7H)-one] | 2 µM | 20% | 0.07 µM | > 120% | – | – | – | – |
| O=C1CC2CNCCN2c2cc(-c3cccc(-n4cccn4)c3)ccc2N1 (stereo not shown) [Example 73, 10-[3-(1H-pyrazol-1-yl)phenyl]-1,2,3,4,4a,5-hexahydropyrazino[1,2-a][1,5]benzodiazepin-6(7H)-one] | > 10 µM | – | 0.03 µM | 110% | – | – | – | – |
| O=C1CC2CNCCN2c2cc(-c3ccc(F)cc3)ccc2N1 (stereo not shown) [Example 74, 10-(4-fluorophenyl)-1,2,3,4,4a,5-hexahydropyrazino[1,2-a][1,5]benzodiazepin-6(7H)-one] | > 10 µM | – | 0.07 µM | 100% | – | – | – | – |
| O=C1CC2CNCCN2c2cc(-c3cc4ccccc4s3)ccc2N1 (stereo not shown) [Example 75, 10-(1-benzothiophen-2-yl)-1,2,3,4,4a,5-hexahydropyrazino[1,2-a][1,5]benzodiazepin-6(7H)-one] | > 10 µM | – | 1 µM | 80% | – | – | – | – |
| CCN1C(=O)CC2CNCCN2c2ccc(Cl)cc21 (stereo not shown) [Example 77, 9-chloro-7-ethyl-1,2,3,4,4a,5-hexahydropyrazino[1,2-a][1,5]-benzodiazepin-6(7H)-one] | > 10 µM | – | 0.2 µM | 100% | – | – | – | – |
| CCN1C(=O)CC2CN(C)CCN2c2ccc(Cl)cc21 (stereo not shown) [Example 78, 9-chloro-7-ethyl-3-methyl-1,2,3,4,4a,5-hexahydropyrazino[1,2-a][1,5]benzodiazepin-6(7H)-one] | > 10 µM | – | 1 µM | 50% | – | – | – | – |
| CN1CCN2c3cccc(F)c3NC(=O)CC2C1 (stereo not shown) [Example 79, 8-fluoro-3-methyl-1,2,3,4,4a,5-hexahydropyrazino[1,2-a][1,5]benzodiazepin-6(7H)-one] | – | – | – | – | > 10 µM | 0.03 µM | 100% | – |
| CN1C(=O)CC2CNCCN2c2ccc(Cl)cc21 (stereo not shown) [Example 80, 9-chloro-7-methyl-1,2,3,4,4a,5-hexahydropyrazino[1,2-a][1,5]benzodiazepin-6(7H)-one] | > 10 µM | – | 0.6 µM | – | – | – | 100% | – |
| CN1CCC2CNCCN2c2ccc(Cl)cc21 (stereo not shown) [Example 81, 9-chloro-7-methyl-1,2,3,4,4a,5,6,7-octahydropyrazino[1,2-a][1,5]benzodiazepine] | – | – | – | – | 1 µM | 0.05 µM | > 120% | 20% |
| CCN1CCC2CN(C)CCN2c2ccc(Cl)cc21 (stereo not shown) [Example 82, 9-chloro-7-ethyl-3-methyl-1,2,3,4,4a,5,6,7-octahydropyrazino[1,2-a][1,5]benzodiazepine] | > 10 µM | – | 0.6 µM | 90% | – | – | – | – |
| O=C1C[C@@H]2CNCCN2c2cccc(F)c2N1 [Example 83, (4aR)-8-fluoro-1,2,3,4,4a,5-hexahydropyrazino[1,2-a][1,5]benzodiazepin-6(7H)-one] | – | – | – | – | 1.05 µM | 0.763 µM | > 120% | 27% |
| CN1CCN2c3cc(Cl)ccc3NC(=O)C[C@H]2C1 [Example 84, (4aS)-10-chloro-3-methyl-1,2,3,4,4a,5-hexahydropyrazino[1,2-a][1,5]benzodiazepin-6(7H)-one] | – | – | – | – | > 10 µM | 0.067 µM | 90% | – |
| O=C1C[C@H]2CNCCN2c2cccc(F)c2N1 [Example 85, (4aS)-8-fluoro-1,2,3,4,4a,5-hexahydropyrazino[1,2-a][1,5]benzodiazepin-6(7H)-one] | – | – | – | – | > 10 µM | 0.0051 µM | > 120% | – |
| O=C1C[C@H]2CNCCN2c2c(F)cccc2N1 [Example 86, (4aS)-11-fluoro-1,2,3,4,4a,5-hexahydropyrazino[1,2-a][1,5]benzodiazepin-6(7H)-one] | – | – | – | – | > 10 µM | 0.008 µM | > 120% | – |
| O=C1C[C@@H]2CNCCN2c2c(F)cccc2N1 [Example 87, (4aR)-11-fluoro-1,2,3,4,4a,5-hexahydropyrazino[1,2-a][1,5]benzodiazepin-6(7H)-one] | – | – | – | – | > 10 µM | 0.9 µM | > 120% | – |
| CN1CCN2c3cccc(F)c3NC(=O)C[C@H]2C1 [Example 88, (4aS)-8-fluoro-3-methyl-1,2,3,4,4a,5-hexahydropyrazino[1,2-a][1,5]benzodiazepin-6(7H)-one] | – | – | – | – | > 10 µM | 0.03 µM | > 120% | – |
| Cc1cccc(-c2ccc3c(c2)N2CCNCC2CC(=O)N3)c1 (stereo not shown) [Example 89, 10-(3-methylphenyl)-1,2,3,4,4a,5-hexahydropyrazino[1,2-a][1,5]benzodiazepin-6(7H)-one] | > 10 µM | – | 0.07 µM | > 120% | – | – | – | – |
| O=C1CC2CNCCN2c2cc(-c3cccc(C(F)(F)F)c3)ccc2N1 (stereo not shown) [Example 90, 10-[3-(trifluoromethyl)phenyl]-1,2,3,4,4a,5-hexahydropyrazino[1,2-a][1,5]benzodiazepin-6(7H)-one] | > 10 µM | – | 0.02 µM | > 120% | – | – | – | – |
| CCc1cccc(-c2ccc3c(c2)N2CCNCC2CC(=O)N3)c1 (stereo not shown) [Example 91, 10-(3-ethylphenyl)-1,2,3,4,4a,5-hexahydropyrazino[1,2-a][1,5]-benzodiazepin-6(7H)-one] | > 10 µM | – | 0.01 µM | > 120% | – | – | – | – |
| CC(C)c1cccc(-c2ccc3c(c2)N2CCNCC2CC(=O)N3)c1 (stereo not shown) [Example 92, 10-(3-isopropylphenyl)-1,2,3,4,4a,5-hexahydropyrazino[1,2-a][1,5]benzodiazepin-6(7H)-one] | > 10 µM | – | 0.02 µM | > 120% | – | – | – | – |
| O=C1CC2CNCCN2c2cc(-c3cccc(OC(F)(F)F)c3)ccc2N1 (stereo not shown) [Example 93, 10-[3-(trifluoromethoxy)phenyl]-1,2,3,4,4a,5-hexahydropyrazino[1,2-a][1,5]benzodiazepin-6(7H)-one] | > 10 µM | – | 0.007 µM | > 120% | – | – | – | – |
| CC(C)Oc1cccc(-c2ccc3c(c2)N2CCNCC2CC(=O)N3)c1 (stereo not shown) [Example 94, 10-(3-isopropoxyphenyl)-1,2,3,4,4a,5-hexahydropyrazino[1,2-a][1,5]benzodiazepin-6(7H)-one] | > 10 µM | – | 0.008 µM | > 120% | – | – | – | – |
| O=C1CC2CNCCN2c2cc(-c3cccc(OCc4ccccc4)c3)ccc2N1 (stereo not shown) [Example 95, 10-[3-(benzyloxy)phenyl]-1,2,3,4,4a,5-hexahydropyrazino[1,2-a][1,5]benzodiazepin-6(7H)-one] | > 10 µM | – | 0.02 µM | > 120% | – | – | – | – |
| CC(C)COc1cccc(-c2ccc3c(c2)N2CCNCC2CC(=O)N3)c1 (stereo not shown) [Example 96, 10-(3-isobutoxyphenyl)-1,2,3,4,4a,5-hexahydropyrazino[1,2-a][1,5]benzodiazepin-6(7H)-one] | > 10 µM | – | 0.02 µM | > 120% | – | – | – | – |
| O=C1CC2CNCCN2c2cccc(Cl)c2N1 (stereo not shown) [Example 110, 8-chloro-1,2,3,4,4a,5-hexahydropyrazino[1,2-a][1,5]benzodiazepin-6(7H)-one] | – | – | – | – | > 10 µM | 0.005 µM | > 120% | – |
| O=C1CC2CNCCN2c2cc(COc3ccccc3)ccc2N1 (stereo not shown) [Example 111, 10-(phenoxymethyl)-1,2,3,4,4a,5-hexahydropyrazino[1,2-a][1,5]benzodiazepin-6(7H)-one] | 0.7 µM | 20% | 0.02 µM | > 120% | – | – | – | – |
